# Like-named read-outs stand apart in the source and are kept apart here.
# Tests used:
# [1] = acute toxicity (LD50) in mice, oral; conditions: in vivo, mouse
# Protocol: (§1) The acute toxicity of the preparations according to the invention was tested on CFJ strain mice and Sprague-Dawley rats.
# (§2) The test substances according to Examples 2,5,6,8 and 10 were administered orally as a 5% suspension in methylcellulose by means of a probang, while the test material according to Example 4, was administered in a 8% gelatin suspension. The test materials for Examples 1 and 3 were administered orally by probang in an aqueous kaolin paste to rats (5 female and 5 male rats weighing 140 to 185 grams each).
# (§3) The period of observation was 7 days.
# [2] = cited from earlier work
# [3] = mouse; comparison, literature data; 10080 min; cited from earlier work
# [4] = antilipemic and anticholesterolemic action in rats on fatty diet, 14 days; type: in vivo, rat (male SPF Wistar); conditions: for Drop (nonvolatile triglycerides) / Final value cholesterol / Final value nonvolatile triglycerides / Drop (cholesterol): 14 days; for Final value cholesterol / Final value nonvolatile triglycerides: blood serum; for reduction of the triglycerides compared with Clofibrat: in a substantially lower dosage than Clofibrat
# Protocol: (§4) The antilipemic and anticholesterolemic action of the compounds according to the invention and of Clofibrat as a standard of comparison was tested on each of 10 male SPF Wistar strain rats of body weights from 80 to 90 g. For test purposes the animals were kept individually apart with restricted feed but water as desired. The animals of control group I were given 10 g basal diet daily, those of control group II, the test groups as well as the Clofibrat comparison group received in addition to the basal diet a fatty composition consisting of 40 g/kg butter with 5 g/kg cholesterol. The test substances conforming to the examples, and also the Clofibrat, were suspended in a 0.2% methylcellulose solution and administered by probang. The final cholesterol value and the value of the nonvolatile triglycerides was determined after 14 days treatment. The analyses were performed in the blood serum by means of an SMA 12/60 auto-analyzer.
# [5] = acute toxicity (LD50) in rats, oral; conditions: in vivo, rat
# Protocol: as §1, §2, §3
# [6] = over-all tolerance and clinical pattern during the rat lipid trial; type: in vivo, rat (male SPF Wistar)
# Protocol: as §4
# There were no deaths. […] No difference could be determined in hearing tests.
# [7] = action on peripheral circulation in narcotized dogs; type: in vivo, dog
# Description: According to Examples 2, 3 and 4, the peripheral circulation is increased some 20-30% of its initial level by the test substances according to those examples.
# [8] = action on blood pressure in narcotized dogs; conditions: into the duodenum, doses up to 200 mg/kg
# [9] = oral, 5% suspension in methylcellulose, 7 days, according to Litchfield and Wilcoxon
# [10] = versus control groups and Clofibrat comparison group
Compound,"LD50 at 168 h [1, 9]",Drop (nonvolatile triglycerides) ([4]; 100 mg/kg),Final value cholesterol ([4]; 100 mg/kg),Final value nonvolatile triglycerides ([4]; 100 mg/kg),"increase of peripheral circulation, of its initial level [7]",systolic and diastolic blood pressure [8],also measured
Cn1c(=O)c2c(ncn2CCOC(=O)COc2ccc(Cl)cc2)n(C)c1=O [Example 5],1510 mg/kg,,,,,,
Cn1c(=O)c2c(ncn2CCOC(=O)COc2ccc(F)cc2)n(C)c1=O [Example 10],1680 mg/kg,,,,,,
"CCOC(=O)C(C)(C)Oc1ccc(Cl)cc1 [Clofibrat, ethyl 2-(p-chlorophenoxy) isobutyrate, reference compound]",,,,,,,"effect on cholesterol value ([2]; fatty diet rat test, Berger et al. 1969): does not lower but even raises the cholesterol value; lowering of cholesterol ([2]; reported in the literature): frequently been reported in the literature; LD50 [3]: 1150 mg/kg; Drop (nonvolatile triglycerides) ([4]; 250 mg/kg): 20.6%; Final value cholesterol ([4]; 250 mg/kg): 133.3 mg %; Final value nonvolatile triglycerides ([4]; 250 mg/kg): 107.7; lowering of cholesterol ([4]; fatty diet rats, in these experimental trials): absolutely inactive"
CC(Oc1ccc(Cl)cc1)C(=O)OCCn1cnc2c1c(=O)n(C)c(=O)n2C (stereo not shown) [Example 6],1540 mg/kg,,,,,,
"Cn1c(=O)c2c(ncn2CCOC(=O)C(C)(C)Oc2ccc(Cl)cc2)n(C)c1=O [Example 1, 1-(7-theophyllinyl)-2-ethyl [2-(p-chlorophenoxy)-isobutyrate]]",,17.3%,95.2 mg %,112.2,up to 10%,,"LD50 at 168 h ([5]; oral by probang, aqueous kaolin paste, 7 days observation): > 4000 mg/kg; over-all tolerance ([6]; rat, in vivo): no differences in the over-all tolerance; Drop (cholesterol) ([4]; 100 mg/kg): 22.7%; lowering of increased cholesterol values (in words) ([4]; in comparison to Clofibrat): with greater significance lower the increased cholesterol values; reduction of the triglycerides (in words) ([4]; rat, in vivo): comparatively good reduction of the triglycerides; peripheral circulation activity (in words) [7]: only slight activity"
"Cn1c(=O)c2c(ncn2CC(COC(=O)COc2ccc(Cl)cc2)OC(=O)COc2ccc(Cl)cc2)n(C)c1=O (stereo not shown) [Example 3, 1-(7-theophyllinyl)-2,3-propylidenedi(p-chlorophenoxy acetate)]",,44.2%,122.0 mg %,75.7,20-30%,did not acutely affect the systolic and diastolic blood pressure to any substantial degree,"LD50 at 168 h ([5]; po): > 4000 mg/kg; over-all tolerance [6, 10]: no differences in the over-all tolerance; reduction of the triglycerides compared with Clofibrat [4]: more than twice as large a reduction of the triglycerides"
"Cn1c(=O)c2c(ncn2CC(O)COC(=O)COc2ccc(Cl)cc2)n(C)c1=O (stereo not shown) [Example 2, 1-(7-theophyllinyl)-2-hydroxy-3-propyl (p-chlorophenoxyacetate)]",2150 mg/kg,45.9%,130.3 mg %,73.4,20-30%,did not acutely affect the systolic and diastolic blood pressure to any substantial degree,"over-all tolerance [6, 10]: no differences in the over-all tolerance; reduction of the triglycerides compared with Clofibrat [4]: more than twice as large a reduction of the triglycerides"
"Cn1c(=O)c2c(ncn2CCOC(=O)C(Oc2ccc(Cl)cc2)Oc2ccc(Cl)cc2)n(C)c1=O [Example 4, 1-(7-theophyllinyl)-2-ethyl bis-(p-chlorophenoxy) acetate]",,,111.0 mg %,179.7,20-30%,did not acutely affect the systolic and diastolic blood pressure to any substantial degree,LD50 at 168 h ([1]; po): 1910 mg/kg; weight increase ([6]; 100 mg/kg dosage): reduced increase in weight; Final value cholesterol ([4]; 35 mg/kg): 132.3 mg %; Final value nonvolatile triglycerides ([4]; 35 mg/kg): 148.3; Drop (cholesterol) ([4]; 100 mg/kg): 9.8%
CC(Oc1cccc(C(F)(F)F)c1)C(=O)OCCn1cnc2c1c(=O)n(C)c(=O)n2C (stereo not shown) [Example 8],2140 mg/kg,,,,,,
